Laboratory results as given in US6887713B2, “Bioactive chip mass spectrometry” (Intrinsic Bioprobes, Inc., priority 2000, dated 2005).

Target: streptavidin (Streptomyces avidinii, UniProt P22629)
Conditions: mixture of 10.0 μM Pep K and 10.0 μM Pep R, 60 s at 20 μl/min, then ~15 s running buffer; immobilized streptavidin
Method: A bioactive chip BC containing streptavidin-derivatized separation site SS was exposed for 60 s (at a flow rate of 20 μl/min) to a mixture containing 10.0 μM Pep K and 10.0 μM Pep R, after which a ˜15 s exposure to the running buffer followed. The separation site SS on the bioactive chip BC was then MALDI-TOF MS analyzed.
The fitting parameters are listed in the figure and were used with starting concentrations of [Pep K]=7 uM; [Pep K(ox)]=3 uM; and [Pep R & Pep R(ox)]=10 uM. A criterion was used in which the relative quantities of the individual species at the end of the run corresponded to the relative quantities estimated from the mass spectrum taken from the surface of the separation site SS.

Chain of streptavidin (P22629 25-183, species assumed): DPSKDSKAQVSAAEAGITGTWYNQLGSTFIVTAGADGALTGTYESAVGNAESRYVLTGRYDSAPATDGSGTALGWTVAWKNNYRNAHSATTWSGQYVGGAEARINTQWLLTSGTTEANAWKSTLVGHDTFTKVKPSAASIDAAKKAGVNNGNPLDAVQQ

SGTSFHPQWIMVGRVATNSP [PepR]
retention by / affinity for streptavidin (change in MALDI-TOF ion signal intensity ratio before vs after interaction): preferential retention
